{
  "source": "ChEMBL document CHEMBL1127096",
  "about": "“Synthesis and anticonvulsant activity of the (+)- and ()-enantiomers of 1,2,3,4-tetrahydro-5-(2-phosphonoethyl)-3-isoquinolinecarboxylic acid, a competitive NMDA antagonist” (Bioorg Med Chem Lett, 1993)",
  "key": {"Mus musculus [1]": {"system": "Mus musculus", "test": "Tested in vivo for anticonvulsant activity against maximal electroshock in mouse, intravenously (MES tested at 1 h)", "type": "functional"}, "Mus musculus [2]": {"system": "Mus musculus", "test": "Tested in vivo for the ability to produce ataxia in mouse, intravenously. (ataxia tested at 30 min)", "type": "functional"}, "[3]": {"test": "Tested for the therapeutic index, which was determined as the ratio of ED50 for ataxia and ED50 to prevent seizures", "details": "for selectivity ratio: read-out: TI"}, "[4]": {"test": "Partition coefficient (logP)", "type": "physicochemical", "details": "octanol/water"}, "[5]": {"test": "Tested for the NMDA antagonist activity, glutamate induced LDH release in cultured neuronal cells", "type": "functional, cell-based"}, "[6]": {"test": "Tested for the NMDA antagonist activity, glutamate induced calcium influx in cultured neuronal cells", "type": "functional, cell-based"}, "Glutamate NMDA receptor": {"target": "Glutamate NMDA receptor", "test": "Tested for the inhibitory activity against NMDA receptor site as measured in a [3H]CPP binding assay of rat brain neuronal membranes"}, "Mus musculus [7]": {"system": "Mus musculus", "test": "Tested in vivo for anticonvulsant activity against maximal electroshock in mouse, intravenously", "type": "functional"}},
  "data": [
    {"smiles": "O=C(O)[C@H]1Cc2c(CCP(=O)(O)O)cccc2CN1", "values": [
      {"measurement": "ED50", "setting": "Mus musculus [1]", "result": 3.56, "unit": "mg/kg"},
      {"measurement": "ED50", "setting": "Mus musculus [2]", "result": 6.29, "unit": "mg/kg"},
      {"measurement": "selectivity ratio", "setting": "[3]", "result": 1.76}
    ]},
    {"smiles": "O=C(O)C1CN(CCCP(=O)(O)O)CCN1", "note": "(centres undefined)", "values": [
      {"measurement": "logP", "setting": "[4]", "result": -3.4},
      {"measurement": "ED50", "setting": "Mus musculus [1]; Mus musculus, iv, 1 h, read-out: ED50", "result": 2.35, "unit": "mg/kg"},
      {"measurement": "ED50", "setting": "Mus musculus [2]; Mus musculus, iv, 0.5 h, read-out: ED50", "result": 5.21, "unit": "mg/kg"},
      {"measurement": "IC50", "setting": "[5]", "result": 9, "unit": "µM"},
      {"measurement": "IC50", "setting": "[6]", "result": 2.4, "unit": "µM"},
      {"measurement": "selectivity ratio", "setting": "[3]", "result": 2.21}
    ]},
    {"smiles": "O=C(O)[C@H]1Cc2c(CCP(=O)(O)O)cccc2CN1", "note": "(racemic)", "values": [
      {"measurement": "logP", "setting": "[4]", "result": 1.4},
      {"measurement": "ED50", "setting": "Mus musculus [1]", "result": 9.2, "unit": "mg/kg"},
      {"measurement": "ED50", "setting": "Mus musculus [2]", "result": 15.84, "unit": "mg/kg"},
      {"measurement": "IC50", "setting": "Glutamate NMDA receptor", "result": 270, "unit": "nM"},
      {"measurement": "IC50", "setting": "[5]", "result": 8.8, "unit": "µM"},
      {"measurement": "IC50", "setting": "[6]", "result": 5.1, "unit": "µM"},
      {"measurement": "TI", "setting": "[3]", "result": 1.72}
    ]},
    {"smiles": "C/C(=C\\C(N)C(=O)O)CP(=O)(O)O", "note": "(racemic) [CGP-37849]", "values": [
      {"measurement": "ED50", "setting": "Mus musculus [7]", "result": 21, "unit": "mg/kg"}
    ]},
    {"smiles": "C/C(=C\\C(N)C(=O)O)CP(=O)(O)O", "note": "(single isomer, unassigned; (+)) [CGP-37849]", "values": [
      {"measurement": "ED50", "setting": "Mus musculus [7]", "result": 7, "unit": "mg/kg"}
    ]},
    {"smiles": "C/C(=C\\C(N)C(=O)O)CP(=O)(O)O", "note": "(single isomer, unassigned; (-)) [CGP-37849]", "values": [
      {"measurement": "ED50", "setting": "Mus musculus [7]", "result": ">60", "unit": "mg/kg"}
    ]}
  ]
}
